Data published in the supplement of paper PMC13380429.

Experiments:
[1] = system: HepG2; experiment: drug sensitivity score (DSS) for viability; higher = more toxic; extreme values may be limits of the assay; conditions: 72 h
[2] = system: Vero E6; experiment: as above; conditions: 72 h
[3] = system: Caco-2; experiment: as above; conditions: 72 h
[4] = system: Calu-3; experiment: as above; conditions: 72 h
[5] = system: Vero E6; experiment: relative viability EC50 (midpoint between 100% and the lowest measured viability); higher = less toxic; conditions: 72 h
[6] = system: Caco-2; experiment: as above; conditions: 72 h
[7] = system: Calu-3; experiment: as above; conditions: 72 h
[8] = system: A549-ACE2; experiment: drug-induced phospholipidosis relative to tamoxifen; higher = more phospholipidosis
[9] = system: A549-ACE2 infected with SARS-CoV-2; experiment: morphology score (similarity to uninfected cells); higher = more like uninfected cells; conditions: 24 h
[10] = system: A549-ACE2 infected with SARS-CoV-2; experiment: cell count relative to DMSO; higher = less toxic; conditions: 24 h
[11] = system: A549-ACE2 infected with SARS-CoV-2; experiment: SARS-CoV-2 infection rate relative to DMSO; higher = more infection; conditions: 24 h
[12] = system: A549-ACE2; experiment: phospholipidosis EC50; higher = less potent phospholipidosis inducer
[13] = system: HepG2; experiment: cell viability relative to DMSO; higher = less toxic; conditions: 72 h
[14] = system: Vero E6; experiment: as above; conditions: 72 h
[15] = system: Caco-2; experiment: as above; conditions: 72 h
[16] = system: Calu-3; experiment: as above; conditions: 72 h
[17] = system: U2OS; experiment: drug sensitivity score (DSS) for viability; higher = more toxic; extreme values may be limits of the assay; conditions: 72 h
[18] = system: U2OS; experiment: relative viability EC50 (midpoint between 100% and the lowest measured viability); higher = less toxic; conditions: 72 h
[19] = system: U2OS; experiment: cell viability relative to DMSO; higher = less toxic; conditions: 72 h

Nc1ccc(C(=O)Nc2cccc(-c3nc(N4CCOCC4)c4oc5ncccc5c4n3)c2)cn1
Conditions	drug sensitivity score	relative viability EC50 [µM]
[1]	10.9	–
[2]	0	–
[3]	1.8	–
[4]	0	–
[5]	–	> 10
[6]	–	> 10
[7]	–	> 10

drug-induced phospholipidosis [%], [8]
Conditions	0.3 µM	0.833333 µM	3.33333 µM	6.66667 µM	10 µM	30 µM
24 h	4.2	16.4	72	146	132	202
48 h	8.45	22.8	79.6	121	135	188
72 h	8	24.5	107	162	–	231

Conditions	SARS-CoV-2 infection rate [%]	cell count [%]	cell viability [%]	morphology score	phospholipidosis EC50 [µM]
[9], 0.3 µM	–	–	–	0.31	–
[9], 3 µM	–	–	–	0.45	–
[9], 10 µM	–	–	–	0.08	–
[9], 30 µM	–	–	–	-0.12	–
[10], 0.3 µM	–	100	–	–	–
[10], 3 µM	–	102	–	–	–
[10], 10 µM	–	101	–	–	–
[10], 30 µM	–	78	–	–	–
[11], 0.3 µM	90	–	–	–	–
[11], 3 µM	47	–	–	–	–
[11], 10 µM	63	–	–	–	–
[11], 30 µM	110	–	–	–	–
[12], 24 h	–	–	–	–	6.01
[12], 48 h	–	–	–	–	7.56
[12], 72 h	–	–	–	–	4.36
[13], 1 nM	–	–	109	–	–
[13], 10 nM	–	–	99.6	–	–
[13], 100 nM	–	–	88.3	–	–
[13], 1000 nM	–	–	50.5	–	–
[13], 10000 nM	–	–	61.6	–	–
[14], 1 nM	–	–	99.9	–	–
[14], 10 nM	–	–	100	–	–
[14], 100 nM	–	–	96.4	–	–
[14], 1000 nM	–	–	95.9	–	–
[14], 10000 nM	–	–	91.9	–	–
[15], 1 nM	–	–	95.4	–	–
[15], 10 nM	–	–	97	–	–
[15], 100 nM	–	–	101	–	–
[15], 1000 nM	–	–	87.1	–	–
[15], 10000 nM	–	–	80	–	–
[16], 1 nM	–	–	101	–	–
[16], 10 nM	–	–	96.1	–	–
[16], 100 nM	–	–	100	–	–
[16], 1000 nM	–	–	96.5	–	–
[16], 10000 nM	–	–	94.8	–	–

CCCCCCCCNC(=O)/C(C#N)=C/c1cn(CCCN(C)C)c2ccccc12 [dynole-34-2]
Conditions	drug sensitivity score	relative viability EC50 [µM]
[1]	2.6	–
[2]	0	–
[3]	2.5	–
[4]	6.6	–
[5]	–	> 10
[7]	–	2.61
[17]	5.1	–
[18]	–	3.29

drug-induced phospholipidosis [%], [8]
Conditions	0.3 µM	0.833333 µM	3.33333 µM	6.66667 µM	10 µM
24 h	1.06	56.4	87.1	96.8	112
48 h	1.92	50.3	46.7	92	119
72 h	2.02	41.5	27.6	81.2	120

Conditions	SARS-CoV-2 infection rate [%]	cell count [%]	cell viability [%]	morphology score	phospholipidosis EC50 [µM]
[9], 0.3 µM	–	–	–	-0.05	–
[10], 0.3 µM	–	97	–	–	–
[11], 0.3 µM	105	–	–	–	–
[12], 24 h	–	–	–	–	0.825
[12], 48 h	–	–	–	–	3.88
[12], 72 h	–	–	–	–	6.62
[13], 1 nM	–	–	96.5	–	–
[13], 10 nM	–	–	93.4	–	–
[13], 100 nM	–	–	97.9	–	–
[13], 1000 nM	–	–	95.8	–	–
[13], 10000 nM	–	–	62	–	–
[14], 1 nM	–	–	104	–	–
[14], 10 nM	–	–	102	–	–
[14], 100 nM	–	–	102	–	–
[14], 1000 nM	–	–	98.6	–	–
[14], 10000 nM	–	–	91.2	–	–
[15], 1 nM	–	–	97.3	–	–
[15], 10 nM	–	–	100	–	–
[15], 100 nM	–	–	103	–	–
[15], 1000 nM	–	–	95.5	–	–
[15], 10000 nM	–	–	63.9	–	–
[16], 1 nM	–	–	98.3	–	–
[16], 10 nM	–	–	96.7	–	–
[16], 100 nM	–	–	105	–	–
[16], 1000 nM	–	–	93.1	–	–
[16], 10000 nM	–	–	-0.1	–	–
[19], 1 nM	–	–	104	–	–
[19], 10 nM	–	–	104	–	–
[19], 100 nM	–	–	99	–	–
[19], 1000 nM	–	–	102	–	–
[19], 10000 nM	–	–	5.2	–	–
